Source: ChEMBL document CHEMBL3272224, “Synthesis and hypotensive activity of N-alkyl-N"-cyano-N'-pyridylguanidines” (J Med Chem, 1978)

Key:
[1] = Toxicity in po dosed mouse assessed as mortality after 7 days; details: in vivo
Rattus norvegicus = experiment: Hypotensive activity in po dosed spontaneously hypertensive Wistar-Okamoto rat assessed as dose required to cause 30 mmHg fall of blood pressure administered for 5 days; assay type: functional; details: 120 h, read-out: MED

Q: Which LD50 at 168 h [1] does the source give for N#CN/C(=N\C(C1CC1)C1CC1)Nc1ccncc1 here?
A: 600 mg/kg

Q: What about the minimal effective dose (Rattus norvegicus) of the same compound?
A: 10 mg/kg

Q: Which results are given for N#CN/C(=N\C1CCCCC1)Nc1cccnc1?
A: LD50 at 168 h [1]: > 1000 mg/kg; minimal effective dose (Rattus norvegicus): 20 mg/kg

Q: With Cc1nn(C)c(C)c1N/C(=N/C#N)NC(C)(C)C as the compound, how does the LD50 at 168 h [1] read?
A: > 1000 mg/kg

Q: What about the minimal effective dose (Rattus norvegicus) of the same compound?
A: 5 mg/kg

Q: With N#C/N=C(/Nc1ccncc1)NC12CC3CC(CC(C3)C1)C2 as the compound, how does the LD50 at 168 h [1] read?
A: > 1000 mg/kg

Q: What about the minimal effective dose (Rattus norvegicus) of the same compound?
A: 5 mg/kg

Q: What does the source list for C/N=C(\NC#N)Nc1cccnc1?
A: LD50 at 168 h [1]: > 1000 mg/kg; minimal effective dose (Rattus norvegicus): > 50 mg/kg

Q: Which results are given for CC(C)(C)C/N=C(\NC#N)Nc1ccncc1?
A: LD50 at 168 h [1]: 600 mg/kg; minimal effective dose (Rattus norvegicus): 5 mg/kg

Q: What does the source list for CCC(C)(C)N/C(=N\C#N)Nc1c(C)cccc1C?
A: LD50 at 168 h [1]: > 1000 mg/kg; minimal effective dose (Rattus norvegicus): 50 mg/kg

Q: Which results are given for CC(C)/N=C(\NC#N)Nc1cccnc1?
A: LD50 at 168 h [1]: > 1000 mg/kg; minimal effective dose (Rattus norvegicus): 2.5 mg/kg

Q: For COc1ccc(N/C(=N/C(C)(C)C)NC#N)cn1, which LD50 at 168 h [1] is on record?
A: 400 mg/kg

Q: And the minimal effective dose (Rattus norvegicus)?
A: 15 mg/kg

Q: Which LD50 at 168 h [1] does the source give for N#C/N=C(/Nc1cccnc1)NC12CC3CC(CC(C3)C1)C2 here?
A: > 1000 mg/kg

Q: What about the minimal effective dose (Rattus norvegicus) of the same compound?
A: 50 mg/kg

Q: With CC(C)(C)/N=C(\NC#N)Nc1ccccn1 as the compound, how does the LD50 at 168 h [1] read?
A: 600 mg/kg

Q: What about the minimal effective dose (Rattus norvegicus) of the same compound?
A: > 20 mg/kg

Q: Which LD50 at 168 h [1] does the source give for N#CN/C(=N\Cc1ccccc1)Nc1ccncc1 here?
A: 600 mg/kg

Q: What about the minimal effective dose (Rattus norvegicus) of the same compound?
A: 5 mg/kg

Q: What does the source list for CC(C)CC(C)(C)/N=C(\NC#N)Nc1cccnc1?
A: LD50 at 168 h [1]: > 1000 mg/kg; minimal effective dose (Rattus norvegicus): 2.5 mg/kg

Q: Which results are given for CCC(CC)N/C(=N\O)Nc1cccnc1?
A: LD50 at 168 h [1]: > 1000 mg/kg; minimal effective dose (Rattus norvegicus): 50 mg/kg

Q: Which LD50 at 168 h [1] does the source give for N#CN/C(=N\CC1CCCO1)Nc1cccnc1 (centres undefined) here?
A: > 1000 mg/kg

Q: And the minimal effective dose (Rattus norvegicus)?
A: 50 mg/kg

Q: For N#CN/C(=N\C1CC1)Nc1cccnc1, which LD50 at 168 h [1] is on record?
A: > 1000 mg/kg

Q: What about the minimal effective dose (Rattus norvegicus) of the same compound?
A: 20 mg/kg

Q: With CC(C)(C)/N=C(\NC#N)Nc1cncc(Br)c1 as the compound, how does the LD50 at 168 h [1] read?
A: 600 mg/kg

Q: And the minimal effective dose (Rattus norvegicus)?
A: 0.5 mg/kg

Q: With CC(C)(C)N/C(=N\C#N)Nc1cnc2ccccc2c1 as the compound, how does the LD50 at 168 h [1] read?
A: > 1000 mg/kg

Q: And the minimal effective dose (Rattus norvegicus)?
A: 20 mg/kg

Q: Which LD50 at 168 h [1] does the source give for CCC(C)(C)N/C(N)=N/C#N [GUANCYDINE] here?
A: 800 mg/kg

Q: And the minimal effective dose (Rattus norvegicus)?
A: 15 mg/kg

Q: For CC(C)(C)N/C(=N\C#N)NCc1cccnc1, which LD50 at 168 h [1] is on record?
A: > 1000 mg/kg

Q: What about the minimal effective dose (Rattus norvegicus) of the same compound?
A: 2.5 mg/kg

Q: Which LD50 at 168 h [1] does the source give for CC1(/N=C(\NC#N)Nc2cccnc2)CCC1 here?
A: > 1000 mg/kg

Q: And the minimal effective dose (Rattus norvegicus)?
A: 50 mg/kg

Q: Which results are given for CC(C)(C)C/N=C(/NC#N)Nc1cccnc1?
A: LD50 at 168 h [1]: > 1000 mg/kg; minimal effective dose (Rattus norvegicus): 2.5 mg/kg

Q: With CC(C)(C)N/C(=N\C#N)NCc1ccccn1 as the compound, how does the LD50 at 168 h [1] read?
A: 600 mg/kg

Q: And the minimal effective dose (Rattus norvegicus)?
A: > 20 mg/kg

Q: With CCCC/N=C(\NC#N)Nc1cccnc1 as the compound, how does the LD50 at 168 h [1] read?
A: > 1000 mg/kg

Q: And the minimal effective dose (Rattus norvegicus)?
A: 20 mg/kg

Q: With CC(C)(C)N/C(=N\C#N)Nc1c(Cl)cccc1Cl as the compound, how does the LD50 at 168 h [1] read?
A: > 1000 mg/kg

Q: What about the minimal effective dose (Rattus norvegicus) of the same compound?
A: > 50 mg/kg

Q: What does the source list for CCC(C)(C)N/C(=N\O)Nc1cccnc1?
A: LD50 at 168 h [1]: 600 mg/kg; minimal effective dose (Rattus norvegicus): > 20 mg/kg

Q: Which LD50 at 168 h [1] does the source give for CCC(C)(C)/N=C(\NC#N)Nc1ccncc1 here?
A: 600 mg/kg

Q: And the minimal effective dose (Rattus norvegicus)?
A: 2.5 mg/kg

Q: For N#CN/C(=N\c1ccccc1)Nc1ccncc1, which LD50 at 168 h [1] is on record?
A: > 1000 mg/kg

Q: And the minimal effective dose (Rattus norvegicus)?
A: 50 mg/kg

Q: What does the source list for N#CN/C(=N\c1cccnc1)N1CCCCC1?
A: LD50 at 168 h [1]: > 1000 mg/kg; minimal effective dose (Rattus norvegicus): 20 mg/kg

Q: For CCC(C)(C)N/C(=N\C#N)Nc1ccc[n+]([O-])c1, which LD50 at 168 h [1] is on record?
A: > 1000 mg/kg

Q: And the minimal effective dose (Rattus norvegicus)?
A: 20 mg/kg

Q: Which LD50 at 168 h [1] does the source give for CC(C)C(=O)N(/C(=N\C#N)Nc1cccnc1)C(C)(C)C here?
A: > 1000 mg/kg

Q: What about the minimal effective dose (Rattus norvegicus) of the same compound?
A: 10 mg/kg

Q: With CCC(C)(C)N/C(=N\C(=O)C(F)(F)F)Nc1cccnc1 as the compound, how does the LD50 at 168 h [1] read?
A: > 1000 mg/kg

Q: And the minimal effective dose (Rattus norvegicus)?
A: > 50 mg/kg

Q: For CC(C)(C)/N=C(\NC#N)Nc1cccnc1Cl, which LD50 at 168 h [1] is on record?
A: > 1000 mg/kg

Q: And the minimal effective dose (Rattus norvegicus)?
A: 5 mg/kg

Q: Which LD50 at 168 h [1] does the source give for Cc1nn(C)c(N/C(=N/C#N)NC(C)(C)C)c1Cl here?
A: > 1000 mg/kg

Q: And the minimal effective dose (Rattus norvegicus)?
A: 20 mg/kg

Q: What does the source list for CCOC(=O)/N=C(/Nc1cccnc1)NC(C)(C)CC?
A: LD50 at 168 h [1]: 600 mg/kg; minimal effective dose (Rattus norvegicus): 20 mg/kg

Q: For CCCN(CCC)S(=O)(=O)/N=C(/Nc1cccnc1)NC(C)(C)CC, which LD50 at 168 h [1] is on record?
A: > 1000 mg/kg

Q: And the minimal effective dose (Rattus norvegicus)?
A: > 50 mg/kg

Q: With CCC(C)C(C)/N=C(\NC#N)Nc1ccncc1 (centres undefined) as the compound, how does the LD50 at 168 h [1] read?
A: 250 mg/kg

Q: What about the minimal effective dose (Rattus norvegicus) of the same compound?
A: 8 mg/kg

Q: With CCC(C)(C)N/C(=N\C(N)=O)Nc1cccnc1 as the compound, how does the LD50 at 168 h [1] read?
A: > 1000 mg/kg

Q: What about the minimal effective dose (Rattus norvegicus) of the same compound?
A: > 50 mg/kg

Q: With CCC(C)(C)N/C(=N\C#N)Nc1ccc[n+](C)c1.[I-] as the compound, how does the LD50 at 168 h [1] read?
A: > 1000 mg/kg

Q: And the minimal effective dose (Rattus norvegicus)?
A: 20 mg/kg

Q: Which LD50 at 168 h [1] does the source give for CC(C)(C)N/C(=N\O)Nc1cccnc1 here?
A: 1000 mg/kg

Q: What about the minimal effective dose (Rattus norvegicus) of the same compound?
A: > 35 mg/kg

Q: What does the source list for CC(C)(C)CC(C)(C)/N=C(\NC#N)Nc1cccnc1?
A: LD50 at 168 h [1]: > 1000 mg/kg; minimal effective dose (Rattus norvegicus): 50 mg/kg

Q: Which results are given for N#CNC(=N)Nc1cccnc1?
A: LD50 at 168 h [1]: > 1000 mg/kg; minimal effective dose (Rattus norvegicus): 50 mg/kg

Q: With N#CN/C(=N\C1CCCC1)Nc1cccnc1 as the compound, how does the LD50 at 168 h [1] read?
A: 1000 mg/kg

Q: And the minimal effective dose (Rattus norvegicus)?
A: 20 mg/kg

Q: For CN1CCN(/C(=N/C#N)NC(C)(C)C)CC1, which LD50 at 168 h [1] is on record?
A: > 1000 mg/kg

Q: And the minimal effective dose (Rattus norvegicus)?
A: > 50 mg/kg

Q: Which LD50 at 168 h [1] does the source give for CC(C)(C)N/C(=N\C#N)NCCc1ccccn1 here?
A: 800 mg/kg

Q: And the minimal effective dose (Rattus norvegicus)?
A: 25 mg/kg

Q: Which LD50 at 168 h [1] does the source give for CC(C)(C)/N=C(\NC#N)Nc1ccc(Cl)nc1Cl here?
A: > 1000 mg/kg

Q: What about the minimal effective dose (Rattus norvegicus) of the same compound?
A: > 50 mg/kg

Q: Which results are given for CCC(C)(C)N/C(=N\c1ncccn1)Nc1cccnc1.Cl?
A: LD50 at 168 h [1]: 1000 mg/kg; minimal effective dose (Rattus norvegicus): > 35 mg/kg
